Among the data in patent publication US7524964B2, “Tetrahydrothiopyrano pyrazole cannabinoid modulators” (Janssen Pharmaceutica NV, priority 2005, dated 2009) are inhibition and IC50 values, retold here.

Where two headings read alike, the source gives them in different places.

In general, inhibition refers to how much of the control response was suppressed. The IC50 is the midpoint of a concentration-inhibition curve. Low values mean greater potency in that assay, high ones weaker potency in that assay.

In one test the target is T1, human CB-2 receptor (Homo sapiens, UniProt P34972).
T1 construct: expressed in transfected cells; host or cells: SK-N-MC cells, pcDNA3 CB-2 (human), semi-purified membranes
Description: Binding assay, cannabinoid CB2 receptor ([3H]-CP-55,940 displacement). Particulars: read-out: CB2 binding percent inhibition; for inhibition at 1 µM: test concentration 1 μM (superscript b); for inhibition at 10 µM: test concentration 10 μM (superscript c). An outline of the steps: (§1)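 Membranes from SK-N-MC cells stably expressing human CB-1 or CB-2 were incubated 90 min at 30° C with 0.2 nM [3H]-CP-55,940 in pH 7.5 Tris buffer with fatty-acid-free BSA; 10 uM WIN 55,212 defined non-specific binding. Filter-bound counts gave IC50 by linear regression, or percent inhibition at 0.2, 1 or 10 μM.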

The target of another test is human CB1 receptor (Homo sapiens, UniProt P21554). The test is described as follows: Binding assay, cannabinoid CB1 receptor ([3H]-CP-55,940 displacement). Also on record: expressed in transfected cells; host or cells: SK-N-MC cells, pcDNA3 CB-1 (human), semi-purified membranes. The following applies: for inhibition at 1 µM: test concentration 1 μM (superscript b); for inhibition at 1 µM / inhibition at 0.2 µM / inhibition at 10 µM: read-out: CB1 binding percent inhibition; for inhibition at 0.2 µM: test concentration 0.2 μM (superscript a); for inhibition at 10 µM: test concentration 10 μM (superscript c). An outline of the steps: as §1

The mark [1] stands for this setting: test concentration 0.2 μM (superscript a).

T1 sequence (P34972 whole entry): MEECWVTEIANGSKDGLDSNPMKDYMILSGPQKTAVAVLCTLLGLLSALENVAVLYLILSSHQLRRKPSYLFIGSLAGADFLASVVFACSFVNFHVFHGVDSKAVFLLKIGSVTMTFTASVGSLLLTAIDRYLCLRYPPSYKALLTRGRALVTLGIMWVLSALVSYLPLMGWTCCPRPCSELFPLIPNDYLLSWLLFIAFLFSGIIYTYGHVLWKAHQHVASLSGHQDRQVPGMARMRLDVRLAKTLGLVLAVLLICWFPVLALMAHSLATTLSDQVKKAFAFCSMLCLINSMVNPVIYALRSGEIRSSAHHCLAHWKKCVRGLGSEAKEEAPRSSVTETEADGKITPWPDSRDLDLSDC
Chain of human CB1 receptor (P21554 whole entry): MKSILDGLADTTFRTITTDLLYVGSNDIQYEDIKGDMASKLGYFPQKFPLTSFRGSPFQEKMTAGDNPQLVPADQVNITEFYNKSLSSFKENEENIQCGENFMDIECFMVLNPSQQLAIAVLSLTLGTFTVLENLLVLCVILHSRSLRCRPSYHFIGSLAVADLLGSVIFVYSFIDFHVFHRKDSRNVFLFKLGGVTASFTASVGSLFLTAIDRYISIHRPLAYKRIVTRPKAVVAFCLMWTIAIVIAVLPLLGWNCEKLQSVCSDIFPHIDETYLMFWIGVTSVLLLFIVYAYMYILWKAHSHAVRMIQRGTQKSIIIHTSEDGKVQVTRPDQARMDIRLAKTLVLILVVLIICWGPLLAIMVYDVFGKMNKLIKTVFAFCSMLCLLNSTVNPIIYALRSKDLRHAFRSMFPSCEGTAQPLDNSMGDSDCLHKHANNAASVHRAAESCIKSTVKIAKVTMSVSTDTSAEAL

With `C[C@H](NS(=O)(=O)/C=C/c1c2c(nn1Cc1ccccc1)CCS(=O)(=O)C2)C1CCCCC1` [Cpd 17, (E)-2-(2-benzyl-5,5-dioxo-4,5,6,7-tetrahydro-2H-5λ^6-thiopyrano[4,3-c]pyrazol-3-yl)-ethenesulfonic acid [(1S)-1-cyclohexyl-ethyl]-amide], the inhibition at 1 µM at human CB-2 receptor was found to be 24%; on human CB1 receptor, 0%.
Consider `O=C(NN1CCCCC1)c1nn(-c2ccc(Cl)cc2)c2c1CS(=O)(=O)C/C2=C\c1ccc(F)cc1` [Cpd 99, (7Z)-1-(4-chloro-phenyl)-7-(4-fluoro-benzylidene)-5,5-dioxo-4,5,6,7-tetrahydro-1H-5λ^6-thiopyrano[4,3-c]pyrazole-3-carboxylic acid piperidin-1-ylamide], for which the inhibition at 0.2 µM on human CB-2 receptor (setting [1]) stood at 12%; on human CB1 receptor it was 66%.
For `O=C(N[C@H]1CCCC[C@@H]1O)c1nn(-c2ccc(Cl)cc2Cl)c2c1CS(=O)(=O)C/C2=C\c1ccc(F)cc1` [Cpd 68, (7Z)-1-(2,4-dichloro-phenyl)-7-(4-fluoro-benzylidene)-5,5-dioxo-4,5,6,7-tetrahydro-1H-5λ^6-thiopyrano[4,3-c]pyrazole-3-carboxylic acid [(1S,2S)-2-hydroxy-cyclohexyl]-amide] the same measures were 19% and 52%.
Turning to `O=C(NN1CC2CCCC2C1)c1nn(-c2ccc(F)cc2F)c2c1CS(=O)(=O)C/C2=C\c1ccc(F)cc1` (centres unmarked) [Cpd 105, (7Z)-1-(2,4-difluoro-phenyl)-7-(4-fluoro-benzylidene)-5,5-dioxo-4,5,6,7-tetrahydro-1H-5λ^6-thiopyrano[4,3-c]pyrazole-3-carboxylic acid (hexahydro-cyclopenta[c]pyrrol-2-yl)-amide], the values for the inhibition at 0.2 µM at human CB-2 receptor (setting [1]) and on human CB1 receptor were 11% and 50%, respectively.
For `C[C@H](NS(=O)(=O)/C=C/c1n[nH]c2c1CSCC2Cc1cccc(F)c1)c1ccccc1` (stereo partly drawn) [Cpd 47, (E)-2-[7-(3-fluoro-benzyl)-1,4,6,7-tetrahydro-thiopyrano[4,3-c]pyrazol-3-yl]-ethenesulfonic acid [(1S)-1-phenyl-ethyl]-amide] the same measures were 26% and 24%.
For `CCOC(=O)[C@@H]1C2CCC(C2)[C@@H]1NC(=O)c1nn(-c2ccc(F)cc2F)c2c1CS(=O)(=O)C[C@@H]2Cc1cccc(F)c1` (stereo partly drawn) [Cpd 49, (2R,3S)-3-{[1-(2,4-difluoro-phenyl)-(7R)-(3-fluoro-benzyl)-5,5-dioxo-4,5,6,7-tetrahydro-1H-5λ^6-thiopyrano[4,3-c]pyrazole-3-carbonyl]-amino}-bicyclo[2.2.1]heptane-2-carboxylic acid ethyl ester], in that order: 6% and 33%.
With `COC[C@H]1CCCN1NC(=O)c1nn(-c2ccc(Cl)cc2Cl)c2c1CSC/C2=C\c1ccc(F)cc1` [Cpd 122, (7Z)-1-(2,4-dichloro-phenyl)-7-(4-fluoro-benzylidene)-1,4,6,7-tetrahydro-thiopyrano[4,3-c]pyrazole-3-carboxylic acid [(2R)-2-(methoxymethyl)-pyrrolidin-1-yl]-amide], at human CB-2 receptor (setting [1]), the inhibition at 0.2 µM is 18%. Moreover, the IC50 on human CB1 receptor was determined as 0.006 µM.
Take `O=C(N[C@H]1c2ccccc2C[C@H]1O)c1nn(-c2ccc(Cl)cc2Cl)c2c1CSC/C2=C\c1ccc(F)cc1` [Cpd 59, (7Z)-1-(2,4-dichloro-phenyl)-7-(4-fluoro-benzylidene)-1,4,6,7-tetrahydro-thiopyrano[4,3-c]pyrazole-3-carboxylic acid [(1S,2R)-2-hydroxy-indan-1-yl]-amide]: the inhibition at 0.2 µM on human CB-2 receptor turned out to be 25%. The compound further had an IC50 at human CB1 receptor of 0.042 µM.
In the case of `O=C(NCc1ccccn1)c1nn(-c2ccc(Cl)cc2Cl)c2c1CS(=O)(=O)C/C2=C\c1ccc(F)cc1` [Cpd 73, (7Z)-1-(2,4-dichloro-phenyl)-7-(4-fluoro-benzylidene)-5,5-dioxo-4,5,6,7-tetrahydro-1H-5λ^6-thiopyrano[4,3-c]pyrazole-3-carboxylic acid (pyridin-2-ylmethyl)-amide], the figures for the inhibition at 0.2 µM on human CB-2 receptor (setting [1]) and on human CB1 receptor were 13% and 56%, respectively.
`C[C@H](NC(=O)c1nn(-c2ccc(Cl)cc2Cl)c2c1CSC/C2=C\c1ccc(F)cc1)c1ccccc1` [Cpd 62, (7Z)-1-(2,4-dichloro-phenyl)-7-(4-fluoro-benzylidene)-1,4,6,7-tetrahydro-thiopyrano[4,3-c]pyrazole-3-carboxylic acid [(1S)-1-phenyl-ethyl]-amide]: the inhibition at 0.2 µM on human CB-2 receptor (setting [1]) stood at 17%. At human CB1 receptor, this compound came in with an IC50 of 0.048 µM.
On to `C[C@H](NC(=O)/C=C/c1nn(Cc2ccccc2)c2c1CSCC2)c1ccccc1` [Cpd 32, (2E)-3-(1-benzyl-1,4,6,7-tetrahydro-thiopyrano[4,3-c]pyrazol-3-yl)-N-[(1S)-1-phenyl-ethyl]-acrylamide], for which the inhibition at 10 µM on human CB-2 receptor was 47%; at human CB1 receptor, 35%.
On to `O=C(NNc1ccc(Cl)cc1Cl)c1nn(-c2ccc(Cl)cc2Cl)c2c1C[S+]([O-])C/C2=C\c1ccc(F)cc1` (centres unmarked) [Cpd 77, (7Z)-1-(2,4-dichloro-phenyl)-7-(4-fluoro-benzylidene)-5-oxo-4,5,6,7-tetrahydro-1H-5λ^4-thiopyrano[4,3-c]pyrazole-3-carboxylic acid N′-(2,4-dichloro-phenyl)-hydrazide], for which the inhibition at 0.2 µM on human CB-2 receptor (setting [1]) amounted to 9%; at human CB1 receptor, 55%.
`O=C(NN1CCCC1)c1nn(-c2ccc(Cl)cc2)c2c1CSC/C2=C\c1ccc(F)cc1` [Cpd 102, (7Z)-1-(4-chloro-phenyl)-7-(4-fluoro-benzylidene)-1,4,6,7-tetrahydro-thiopyrano[4,3-c]pyrazole-3-carboxylic acid pyrrolidin-1-ylamide]: the values for the inhibition at 0.2 µM at human CB-2 receptor (setting [1]) and at human CB1 receptor were 23% and 76%, respectively.
In the case of `C[C@@H](NC(=O)c1nn(-c2ccc(Cl)cc2Cl)c2c1CSC/C2=C\c1ccc(F)cc1)c1ccccn1` [Cpd 127, (7Z)-1-(2,4-dichloro-phenyl)-7-(4-fluoro-benzylidene)-1,4,6,7-tetrahydro-thiopyrano[4,3-c]pyrazole-3-carboxylic acid [(1R)-1-(pyridin-2-yl)-ethyl]-amide], the inhibition at 0.2 µM at human CB-2 receptor came out at 19%. The same compound registered an IC50 on human CB1 receptor of 0.007 µM.
Turning to `O=C(c1nn(-c2ccc(Cl)cc2Cl)c2c1CSC/C2=C\c1ccc(F)cc1)N1CCCCC1` [Cpd 55, (7Z)-[1-(2,4-dichloro-phenyl)-7-(4-fluoro-benzylidene)-1,4,6,7-tetrahydro-thiopyrano[4,3-c]pyrazol-3-yl]-piperidin-1-yl-methanone], the inhibition at 0.2 µM on human CB-2 receptor (setting [1]) came to 10%; on human CB1 receptor, 52%.
For the compound `O=C(NN1CC2CCCC2C1)c1nn(-c2ccc(Cl)cc2Cl)c2c1CS(=O)(=O)C/C2=C\c1ccc(Cl)o1` (centres unmarked) [Cpd 121, (7Z)-7-(5-chloro-furan-2-ylmethylene)-1-(2,4-dichloro-phenyl)-5,5-dioxo-4,5,6,7-tetrahydro-1H-5λ^6-thiopyrano[4,3-c]pyrazole-3-carboxylic acid (hexahydro-cyclopenta[c]pyrrol-2-yl)-amide], the inhibition at 0.2 µM on human CB-2 receptor (setting [1]) is 15%. Moreover, the IC50 on human CB1 receptor came out at 0.048 µM.
With `C[C@H](NC(=O)c1nn(-c2ccc(Cl)cc2Cl)c2c1CS(=O)(=O)C/C2=C\c1ccc(F)cc1)c1ccccc1` [Cpd 65, (7Z)-1-(2,4-dichloro-phenyl)-7-(4-fluoro-benzylidene)-5,5-dioxo-4,5,6,7-tetrahydro-1H-5λ^6-thiopyrano[4,3-c]pyrazole-3-carboxylic acid [(1S)-1-phenyl-ethyl]-amide], on human CB-2 receptor (setting [1]), the inhibition at 0.2 µM came to 17%. For the same compound, the IC50 on human CB1 receptor worked out at 0.005 µM.
Consider `C[C@@H](NC(=O)c1c2c(nn1-c1ccc(Cl)cc1Cl)/C(=C/c1ccc(F)cc1)CSC2)C1CCCCC1` [Cpd 89, (7Z)-2-(2,4-dichloro-phenyl)-7-(4-fluoro-benzylidene)-2,4,6,7-tetrahydro-thiopyrano[4,3-c]pyrazole-3-carboxylic acid [(1R)-1-cyclohexyl-ethyl]-amide], for which the inhibition at 0.2 µM on human CB-2 receptor (setting [1]) came out at 10%. In addition, the IC50 on human CB1 receptor was found to be 0.074 µM.
For the compound `C[C@@H](NC(=O)/C=C/c1nn(Cc2ccccc2)c2c1CS(=O)(=O)CC2)c1ccccc1` [Cpd 37, (2E)-3-(1-benzyl-5,5-dioxo-4,5,6,7-tetrahydro-1H-5λ^6-thiopyrano[4,3-c]pyrazol-3-yl)-N-[(1R)-1-phenyl-ethyl]-acrylamide], the inhibition at 10 µM stood at 7% on human CB-2 receptor and 11% on human CB1 receptor.
`C[C@H](NS(=O)(=O)/C=C/c1c2c(nn1Cc1ccccc1)CCSC2)c1ccccc1` [Cpd 5, (E)-2-(2-benzyl-2,4,6,7-tetrahydro-thiopyrano[4,3-c]pyrazol-3-yl)-ethenesulfonic acid [(1S)-1-phenyl-ethyl]-amide]: the inhibition at 1 µM at human CB-2 receptor and at human CB1 receptor was 9% throughout.
For the compound `C[C@@H](NS(=O)(=O)/C=C/c1n[nH]c2c1CSCC2Cc1cccc(F)c1)C1CCCCC1` (stereo partly drawn) [Cpd 48, (E)-2-[7-(3-fluoro-benzyl)-1,4,6,7-tetrahydro-thiopyrano[4,3-c]pyrazol-3-yl]-ethenesulfonic acid [(1R)-1-cyclohexyl-ethyl]-amide], the results for the inhibition at 0.2 µM on human CB-2 receptor (setting [1]) and at human CB1 receptor were 11% and 15%, respectively.
Consider `O=C(NN1CC2CCCC2C1)c1nn(-c2ccc(Cl)cc2Cl)c2c1CSC/C2=C\c1ccc(F)cc1` (centres unmarked) [Cpd 116, (7Z)-1-(2,4-dichloro-phenyl)-7-(4-fluoro-benzylidene)-1,4,6,7-tetrahydro-thiopyrano[4,3-c]pyrazole-3-carboxylic acid (hexahydro-cyclopenta[c]pyrrol-2-yl)-amide], for which the inhibition at 0.2 µM on human CB-2 receptor (setting [1]) was determined as 18%. At human CB1 receptor, the IC50 was found to be 0.011 µM.
